Test results from patent US12187728B2 (Raze Therapeutics, Inc., priority 2015, dated 2025).

These compounds were tested against T1, Human MTHFD2 (Homo sapiens, UniProt P13995) (assay: MTHFD2 Activity Assay (dehydrogenase activity, diaphorase/resazurin coupled fluorescence)). Conditions: inhibitory activity (IC50 and/or binding constant); 0.2 nM MTHFD2, 11 concentrations.
T1 construct: residues 36-350 in Uniport ID P13995; His6 (N); made in house; host or cells: E. coli
T1 sequence (P13995 36-350): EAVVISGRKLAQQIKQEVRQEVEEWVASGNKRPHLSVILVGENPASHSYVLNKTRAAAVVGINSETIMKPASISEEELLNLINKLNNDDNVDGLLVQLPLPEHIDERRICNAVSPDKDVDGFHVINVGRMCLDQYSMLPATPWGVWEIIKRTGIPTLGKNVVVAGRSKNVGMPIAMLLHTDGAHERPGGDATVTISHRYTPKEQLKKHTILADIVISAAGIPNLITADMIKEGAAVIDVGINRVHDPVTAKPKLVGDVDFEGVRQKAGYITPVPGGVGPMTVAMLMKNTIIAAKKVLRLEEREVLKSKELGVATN
Type: biochemical
How it was run: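 Resorufin fluorescence (ex 525, em 598 nm) reports NADH formed by the dehydrogenase via diaphorase coupling. Enzyme (0.2 nM, residues 36-350, N-His6) sat with compound 15 min before 70 μM CH2-THF and 1 mM NAD+ started a 30 min reaction. IC50s come from 4-parameter fits over 11 concentrations.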
With `Cc1cccc2[nH]c(Cn3c(=O)c4c(nc(Nc5ccncc5)n4C)n(C)c3=O)c(C)c12` [Example 419, 1-((3,4-dimethyl-1H-indol-2-yl)methyl)-3,7-dimethyl-8-(pyridin-4-ylamino)-1H-purine-2,6(3H,7H)-dione] the IC50 was 10 to 1000 nM. For `Cn1c(Nc2ccc(C(N)=O)cc2)nc2c1c(=O)n(Cc1cc3c(Cl)cccc3[nH]1)c(=O)n2C` [Example 420, 4-[[1-[(4-chloro-1H-indol-2-yl)methyl]-3,7-dimethyl-2,6-dioxo-purin-8-yl]amino]benzamide], the IC50 was 10 to 1000 nM. In the case of `COc1nc2c(c(=O)n(Cc3cc4cccc(Cl)c4[nH]3)c(=O)n2C)n1C` [Example 421, 1-[(7-chloro-1H-indol-2-yl)methyl]-8-methoxy-3,7-dimethyl-purine-2,6-dione], the IC50 is reported as 10 to 1000 nM. For `Cn1c(NC(=O)C(F)(F)F)nc2c1c(=O)n(Cc1cc3c(Cl)cccc3[nH]1)c(=O)n2C` [Example 422, N-[1-[(4-chloro-1H-indol-2-yl)methyl]-3,7-dimethyl-2,6-dioxo-purin-8-yl]-2,2,2-trifluoro-acetamide], the IC50 was 10 to 1000 nM. `Cn1c(C2CCNC2)nc2c1c(=O)n(Cc1[nH]c3cccc(Cl)c3c1Cl)c(=O)n2C` (stereo not drawn) [Example 423, 1-((3,4-dichloro-1H-indol-2-yl)methyl)-3,7-dimethyl-8-(pyrrolidin-3-yl)-1H-purine-2,6(3H,7H)-dione] was tested, and the IC50 was 10 to 1000 nM. `Cn1c(C2CCCN2)nc2c1c(=O)n(Cc1cc3c(Cl)cccc3[nH]1)c(=O)n2C` (stereo not drawn) [Example 424, 1-[(4-chloro-1H-indol-2-yl)methyl]-3,7-dimethyl-8-pyrrolidin-2-yl-purine-2,6-dione] was tested, and the IC50 was 10 to 1000 nM. Compound `Cn1c(C2CCNC2)nc2c1c(=O)n(Cc1cc3c(Cl)cccc3[nH]1)c(=O)n2C` (stereo not drawn) [Example 425, 1-[(4-chloro-1H-indol-2-yl)methyl]-3,7-dimethyl-8-pyrrolidin-3-yl-purine-2,6-dione] has an IC50 of 10 to 1000 nM. For `CCN(CC)C(=O)CCc1nccc(Nc2nc3c(c(=O)n(Cc4cc5c(Cl)cccc5[nH]4)c(=O)n3C)n2C)n1` [Example 426, 3-(4-(1-((4-chloro-1H-indol-2-yl)methyl)-3,7-dimethyl-2,6-dioxo-2,3,6,7-tetrahydro-1H-purin-8-ylamino)pyrimidin-2-yl)-N,N-diethylpropanamide], the IC50 was 10 to 1000 nM. `Cn1c(Nc2ccc(C#N)nc2)nc2c1c(=O)n(Cc1cc3c(Cl)cccc3[nH]1)c(=O)n2C` [Example 427, 5-(1-((4-chloro-1H-indol-2-yl)methyl)-3,7-dimethyl-2,6-dioxo-2,3,6,7-tetrahydro-1H-purin-8-ylamino)picolinonitrile] was tested, and the IC50 was 10 to 1000 nM. Work on `Cn1c(Nc2ccnc(CCC(=O)N3CCNCC3)n2)nc2c1c(=O)n(Cc1cc3c(Cl)cccc3[nH]1)c(=O)n2C` [Example 428, 1-((4-chloro-1H-indol-2-yl)methyl)-3,7-dimethyl-8-(2-(3-oxo-3-(piperazin-1-yl)propyl)pyrimidin-4-ylamino)-1H-purine-2,6(3H,7H)-dione] yielded an IC50 of 10 to 1000 nM. In the case of `Cn1c(Nc2ccc(CN)nc2)nc2c1c(=O)n(Cc1cc3c(Cl)cccc3[nH]1)c(=O)n2C` [Example 429, 8-(6-(aminomethyl)pyridin-3-ylamino)-1-((4-chloro-1H-indol-2-yl)methyl)-3,7-dimethyl-1H-purine-2,6(3H,7H)-dione], the IC50 is reported as 10 to 1000 nM. In the case of `Cn1c(C2CCCCN2)nc2c1c(=O)n(Cc1cc3c(Cl)cccc3[nH]1)c(=O)n2C` (stereo not drawn) [Example 430, 1-((4-chloro-1H-indol-2-yl)methyl)-3,7-dimethyl-8-(piperidin-2-yl)-3,7-dihydro-1H-purine-2,6-dione], the IC50 is reported as 10 to 1000 nM. Work on `Cn1c(Nc2ccc(CC(N)=O)cc2)nc2c1c(=O)n(Cc1cc3c(Cl)cccc3[nH]1)c(=O)n2C` [Example 431, 2-[4-[[1-[(4-chloro-1H-indol-2-yl)methyl]-3,7-dimethyl-2,6-dioxo-purin-8-yl]amino]phenyl]acetamide] yielded an IC50 of 10 to 1000 nM. `Cn1c(Nc2ccc(CO)cc2)nc2c1c(=O)n(Cc1cc3c(Cl)cccc3[nH]1)c(=O)n2C` [Example 432, 1-((4-chloro-1H-indol-2-yl)methyl)-8-(4-(hydroxymethyl)phenylamino)-3,7-dimethyl-1H-purine-2,6(3H,7H)-dione] was tested, and the IC50 was 10 to 1000 nM. With `COc1nc2c(c(=O)n(Cc3cc4cccc(Cl)c4n3C)c(=O)n2C)n1C` [Example 433, 1-[(7-chloro-1-methyl-indol-2-yl)methyl]-8-methoxy-3,7-dimethyl-purine-2,6-dione] the IC50 was 10 to 1000 nM. With `CCC(N)c1nc2c(c(=O)n(Cc3cc4c(Cl)cccc4[nH]3)c(=O)n2C)n1C` (stereo not drawn) [Example 434, 8-(1-aminopropyl)-1-[(4-chloro-1H-indol-2-yl)methyl]-3,7-dimethyl-purine-2,6-dione] the IC50 was 10 to 1000 nM. Work on `CC(C)C(N)c1nc2c(c(=O)n(Cc3cc4c(Cl)cccc4[nH]3)c(=O)n2C)n1C` (stereo not drawn) [Example 437, 8-(1-amino-2-methyl-propyl)-1-[(4-chloro-1H-indol-2-yl)methyl]-3,7-dimethyl-purine-2,6-dione] yielded an IC50 of 10 to 1000 nM. `CNC(C)c1nc2c(c(=O)n(Cc3cc4c(Cl)cccc4[nH]3)c(=O)n2C)n1C` (stereo not drawn) [Example 438, 1-[(4-chloro-1H-indol-2-yl)methyl]-3,7-dimethyl-8-[1-(methylamino)ethyl]purine-2,6-dione] showed an IC50 of 10 to 1000 nM. `Cn1c(N[C@H]2CCC[C@H]2N)nc2c1c(=O)n(Cc1cc3c(Cl)cccc3[nH]1)c(=O)n2C` [Example 439, 8-((1S,2R)-2-aminocyclopentylamino)-1-((4-chloro-1H-indol-2-yl)methyl)-3,7-dimethyl-1H-purine-2,6(3H,7H)-dione] was tested, and the IC50 was 10 to 1000 nM. `Cn1c(Nc2ccnc(CNC(=O)CN)n2)nc2c1c(=O)n(Cc1cc3c(Cl)cccc3[nH]1)c(=O)n2C` [Example 440, 2-amino-N-((4-(1((4-chloro-1H-indol-2-yl)methyl)-3,7-dimethyl-2,6-dioxo-2,3,6,7-tetrahydro-1H-purin-8-ylamino)pyrimidin-2-yl)methyl)acetamide] showed an IC50 of 10 to 1000 nM. Work on `CCn1c(=O)n(Cc2cc3c(Cl)cccc3[nH]2)c(=O)c2c1nc(C(C)N)n2C` (stereo not drawn) [Example 441, 8-(1-aminoethyl)-1-((4-chloro-1H-indol-2-yl)methyl)-3-ethyl-7-methyl-1H-purine-2,6(3H,7H)-dione] yielded an IC50 of 10 to 1000 nM. `Cn1c(C(N)CC2CC2)nc2c1c(=O)n(Cc1cc3c(Cl)cccc3[nH]1)c(=O)n2C` (stereo not drawn) [Example 442] was tested, and the IC50 was 10 to 1000 nM. `Cn1c(C(N)C2CCC2)nc2c1c(=O)n(Cc1cc3c(Cl)cccc3[nH]1)c(=O)n2C` (stereo not drawn) [Example 443, 8-[amino(cyclobutyl)methyl]-1-[(4-chloro-1H-indol-2-yl)methyl]-3,7-dimethyl-purine-2,6-dione] showed an IC50 of 10 to 1000 nM. In the case of `Cn1c(C(N)C2CC2)nc2c1c(=O)n(Cc1cc3c(Cl)cccc3[nH]1)c(=O)n2C` (stereo not drawn) [Example 444, 8-[amino(cyclopropyl)methyl]-1-[(4-chloro-1H-indol-2-yl)methyl]-3,7-dimethyl-purine-2,6-dione], the IC50 is reported as 10 to 1000 nM. With `Cn1c(C(N)c2cccnc2)nc2c1c(=O)n(Cc1cc3c(Cl)cccc3[nH]1)c(=O)n2C` (stereo not drawn) [Example 445, 8-[amino(3-pyridyl)methyl]-1-[(4-chloro-1H-indol-2-yl)methyl]-3,7-dimethyl-purine-2,6-dione] the IC50 was 10 to 1000 nM. `Cn1c(C(N)C2CCCCC2)nc2c1c(=O)n(Cc1cc3c(Cl)cccc3[nH]1)c(=O)n2C` (stereo not drawn) [Example 446, 8-[amino(cyclohexyl)methyl]-1-[(4-chloro-1H-indol-2-yl)methyl]-3,7-dimethyl-purine-2,6-dione] gave an IC50 of 10 to 1000 nM. With `Cn1c([C@H](N)Cc2ccncc2)nc2c1c(=O)n(Cc1cc3c(Cl)cccc3[nH]1)c(=O)n2C` [Example 447, (R)-8-(1-amino-2-(pyridin-4-yl)ethyl)-1-((4-chloro-1H-indol-2-yl)methyl)-3,7-dimethyl-1H-purine-2,6(3H,7H)-dione] the IC50 was 10 to 1000 nM. With `Cc1cccc2cc(Cn3c(=O)c4c(nc(C(C)N)n4C)n(C)c3=O)ccc12` (stereo not drawn) [Example 448, 8-(1-aminoethyl)-3,7-dimethyl-1-((5-methylnaphthalen-2-yl)methyl)-1H-purine-2,6(3H,7H)-dione] the IC50 was 10 to 1000 nM. `Cn1c([C@@H](N)Cc2ccncc2)nc2c1c(=O)n(Cc1cc3c(Cl)cccc3[nH]1)c(=O)n2C` [Example 449, (S)-8-(1-amino-2-(pyridin-4-yl)ethyl)-1-((4-chloro-1H-indol-2-yl)methyl)-3,7-dimethyl-1H-purine-2,6(3H,7H)-dione] gave an IC50 of 10 to 1000 nM. In the case of `Cn1c(C(N)Cc2ccccc2)nc2c1c(=O)n(Cc1cc3c(Cl)cccc3[nH]1)c(=O)n2C` (stereo not drawn) [Example 450, 8-(1-amino-2-phenylethyl)-1-((4-chloro-1H-indol-2-yl)methyl)-3,7-dimethyl-1H-purine-2,6(3H,7H)-dione], the IC50 is reported as 10 to 1000 nM. In the case of `CC(=O)NCc1nccc(Nc2nc3c(c(=O)n(Cc4cc5c(Cl)cccc5[nH]4)c(=O)n3C)n2C)n1` [Example 451, N-((4-(1-((4-chloro-1H-indol-2-yl)methyl)-3,7-dimethyl-2,6-dioxo-2,3,6,7-tetrahydro-1H-purin-8-ylamino)pyrimidin-2-yl)methyl)acetamide], the IC50 is reported as 10 to 1000 nM. Work on `CC(N)c1nc2c(c(=O)n(Cc3ccc4c(C5CC5)cccc4c3)c(=O)n2C)n1C` (stereo not drawn) [Example 452, 8-(1-aminoethyl)-1-((5-cyclopropylnaphthalen-2-yl)methyl)-3,7-dimethyl-1H-purine-2,6(3H,7H)-dione] yielded an IC50 of 10 to 1000 nM. In the case of `Cn1c(C2CNCCO2)nc2c1c(=O)n(Cc1cc3c(Cl)cccc3[nH]1)c(=O)n2C` (stereo not drawn) [Example 453, 1-[(4-chloro-1H-indol-2-yl)methyl]-3,7-dimethyl-8-morpholin-2-yl-purine-2,6-dione], the IC50 is reported as 10 to 1000 nM.
